Source: paper PMC4139061, “Structural basis of nucleoside and nucleoside drug selectivity by concentrative nucleoside transporters” (eLife, 2014)
“And” between values parts separate entries of the source, which are not always exact repeats. Equal values may be shown once.

Key:
[1] = biological target: hCNT2 (Homo sapiens, UniProt O43868); experiment: two-electrode voltage-clamp of Na+ currents in Xenopus oocytes expressing hCNT2; type: cell-based; conditions: data not shown
From the text: (§1) To detect nucleoside transport by hCNTs, we turned to two-electrode voltage-clamp electrophysiological recording. Because hCNTs are Na^+-nucleoside symporters, one can measure the current generated by the Na^+ transport that is coupled with nucleoside transport. We injected Xenopus oocytes with mRNA coding for each of the hCNTs and measured inward Na^+ currents elicited by the addition of different nucleosides to the extracellular side.
(§2) The genes coding for the three hCNTs and vcCNT were cloned into a pGEM-HE vector. Plasmids were linearized using either SphI or NheI, and mRNA was transcribed using the mMESSAGE mMACHINE T7 Transcription Kit (Ambion, Grand Island, NY). Defolliculated Xenopus laevis oocytes were purchased from Ecocyte Bioscience (Austin, TX). Individual oocytes were injected with 40 ng of mRNA using a 10-μl microdispenser (Drummond Scientific, Broomall, PA) fitted with a tapered glass pipette tip and incubated at 17 °C for 4–5 days in ND96 buffer (96 mM NaCl, 2 mM KCl, 1 mM MgCl2, 1.8 mM CaCl2, and 5 mM HEPES pH 7.5) with 0.1% penicillin and streptomycin before recording.
The oocyte-recording chamber was gravity-perfused with ND96 buffer at a rate of 2 ml/min. Membrane currents were measured using an Oocyte Clamp (OC-725C; Warner Instruments, Hamden, CT). Individual oocytes were penetrated with two microelectrodes filled with 3 M KCl (0.5–1.0 MΩ). […]

[2] = biological target: hCNT3 (375L/446V) (Homo sapiens, UniProt Q9HAS3, L446V/V375L); experiment: two-electrode voltage-clamp total charge in Xenopus oocytes expressing hCNT3 (375L/446V); type: cell-based; conditions: mean of Exp. 1-11
Chain of hCNT3 (375L/446V) (Q9HAS3 whole entry V375L/L446V): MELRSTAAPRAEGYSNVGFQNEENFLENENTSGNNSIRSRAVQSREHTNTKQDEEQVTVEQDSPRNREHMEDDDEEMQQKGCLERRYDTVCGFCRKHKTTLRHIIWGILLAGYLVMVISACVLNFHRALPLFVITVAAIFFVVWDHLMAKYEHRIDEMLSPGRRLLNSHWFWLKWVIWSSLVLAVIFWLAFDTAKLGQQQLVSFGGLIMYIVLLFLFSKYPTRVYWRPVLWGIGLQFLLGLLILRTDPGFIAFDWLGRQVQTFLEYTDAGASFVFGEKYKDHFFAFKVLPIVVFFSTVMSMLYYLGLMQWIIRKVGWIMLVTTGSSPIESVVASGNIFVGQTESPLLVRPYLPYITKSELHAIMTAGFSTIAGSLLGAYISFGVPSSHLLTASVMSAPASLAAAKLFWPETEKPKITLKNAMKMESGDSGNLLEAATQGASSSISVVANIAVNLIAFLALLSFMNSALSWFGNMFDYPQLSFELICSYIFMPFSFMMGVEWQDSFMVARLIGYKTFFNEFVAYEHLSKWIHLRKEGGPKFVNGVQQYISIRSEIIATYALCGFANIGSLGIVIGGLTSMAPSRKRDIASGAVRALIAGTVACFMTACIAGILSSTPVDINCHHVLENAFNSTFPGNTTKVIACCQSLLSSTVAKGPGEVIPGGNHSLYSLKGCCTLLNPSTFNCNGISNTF
From the text: In the paradigm of the alternating-access mechanism of sodium-coupled symporters ([Krishnamurthy et al., 2009]), substrate release is achieved by the transition from the inward-facing occluded to the inward-facing open state (Figure 6C).
(§3) Figure 6. […] (A) Model of hCNT3 nucleo-pocket. […] (B) Model of hCNT1 nucleo-pocket. […] (C) Hypothetical alternating-access mechanism of vcCNT. A cartoon representation of the different conformational states along the transport cycle is depicted. The transport domain (including HP1, HP2, TM4b, and TM7b) and TM6 are shown as cylinders. […] The nucleo-pocket in the inward-occluded conformation (bottom right) is located between TM6 and TM4 and is marked with a green star. The inward-occluded conformation is derived from the crystal structures of vcCNT. All other conformations are purely hypothetical. The transition between inward- and outward-facing conformations has been proposed to be achieved by a rigid-body movement of the transport domain across TM6 ([Johnson et al., 2012]). Extracellular and intracellular gating likely involves slight rearrangements of HP2/TM4b and HP1/TM7b, respectively. […] See Figure 6—source data 1 for total charge source data. DOI: http://dx.doi.org/10.7554/eLife.03604.024 Figure 6—source data 1. Total charge data. Total charge transported (μC) was calculated as the area under the curve of the current trace after application of the indicated nucleoside to hCNT-expressing Xenopus oocytes. Each row represents a separate experiment done using a different oocyte. The ratios of the total charge transported for the nucleosides are shown in the last columns.
The genes coding for the three hCNTs and vcCNT were cloned into a pGEM-HE vector. Plasmids were linearized using either SphI or NheI, and mRNA was transcribed using the mMESSAGE mMACHINE T7 Transcription Kit (Ambion, Grand Island, NY). […]
The oocyte-recording chamber was gravity-perfused with ND96 buffer at a rate of 2 ml/min. Membrane currents were measured using an Oocyte Clamp (OC-725C; Warner Instruments, Hamden, CT). […]

[3] = biological target: T1, hCNT1 (Homo sapiens, UniProt O00337); experiment: two-electrode voltage-clamp of Na+ currents / total charge in Xenopus oocytes expressing hCNT1; type: cell-based
T1 sequence (O00337 1-649): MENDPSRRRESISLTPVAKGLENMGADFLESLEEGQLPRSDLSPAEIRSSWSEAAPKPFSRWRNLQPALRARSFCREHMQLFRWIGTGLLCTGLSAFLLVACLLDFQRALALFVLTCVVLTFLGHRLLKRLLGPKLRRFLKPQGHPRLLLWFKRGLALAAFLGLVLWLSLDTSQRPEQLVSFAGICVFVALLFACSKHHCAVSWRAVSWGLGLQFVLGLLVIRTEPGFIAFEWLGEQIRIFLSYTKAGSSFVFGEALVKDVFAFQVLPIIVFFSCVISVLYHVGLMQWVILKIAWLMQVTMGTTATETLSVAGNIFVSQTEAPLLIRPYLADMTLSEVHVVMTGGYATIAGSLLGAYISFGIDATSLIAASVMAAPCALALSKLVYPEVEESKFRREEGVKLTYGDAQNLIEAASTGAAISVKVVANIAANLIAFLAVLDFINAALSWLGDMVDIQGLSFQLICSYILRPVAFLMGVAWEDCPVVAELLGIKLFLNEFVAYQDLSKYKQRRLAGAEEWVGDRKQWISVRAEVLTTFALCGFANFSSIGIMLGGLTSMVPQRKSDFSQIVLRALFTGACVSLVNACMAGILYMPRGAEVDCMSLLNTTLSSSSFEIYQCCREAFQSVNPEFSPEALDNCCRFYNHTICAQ
From the text: as §1, §2
The oocyte-recording chamber was gravity-perfused with ND96 buffer at a rate of 2 ml/min. Membrane currents were measured using an Oocyte Clamp (OC-725C; Warner Instruments, Hamden, CT). Individual oocytes were penetrated with two microelectrodes filled with 3 M KCl (0.5–1.0 MΩ). All electrophysiological experiments were conducted at room temperature. The OC-725C Oocyte Clamp was computer-interfaced via an Axon Digidata 1550 and controlled by Axoscope software (Molecular Devices, Sunnyvale, CA). The current signals were filtered at 20 Hz and sampled at intervals of 20 ms. The signals were filtered at 0.5 Hz by use of pCLAMP 10.4 software for data presentation. […] Cells were discarded if resting membrane potentials were unstable or more positive than −30 mV. Oocyte membrane potentials were clamped at −90 mV for holding potentials to measure transporter-generated currents. All data are shown as means ± SEM.

[4] = biological target: vcCNT (Vibrio cholerae, UniProt Q9KPL5); experiment: biochemical; type: binding; conditions: for mAnisotropy: [pyrrolo-gemcitabine] 2.00 μM
Chain of vcCNT (Q9KPL5 entry or part of it): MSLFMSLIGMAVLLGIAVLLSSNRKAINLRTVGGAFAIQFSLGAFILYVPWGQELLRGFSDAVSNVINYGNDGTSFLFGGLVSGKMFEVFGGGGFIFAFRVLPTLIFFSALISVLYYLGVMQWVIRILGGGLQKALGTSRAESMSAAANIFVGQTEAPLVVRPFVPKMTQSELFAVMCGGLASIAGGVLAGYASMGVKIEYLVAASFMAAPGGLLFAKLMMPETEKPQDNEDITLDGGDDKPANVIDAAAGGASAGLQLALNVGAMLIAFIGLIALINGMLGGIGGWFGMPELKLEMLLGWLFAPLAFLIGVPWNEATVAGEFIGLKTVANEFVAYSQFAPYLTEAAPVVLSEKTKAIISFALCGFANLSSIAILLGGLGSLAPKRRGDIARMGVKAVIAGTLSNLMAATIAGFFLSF

[5] = biological target: hCNT1 (353V/424L) (Homo sapiens, UniProt O00337, L353V/V424L); experiment: two-electrode voltage-clamp total charge in Xenopus oocytes expressing hCNT1 (353V/424L); type: cell-based; conditions: mean of Exp. 1-8
Chain of hCNT1 (353V/424L) (O00337 whole entry L353V/V424L): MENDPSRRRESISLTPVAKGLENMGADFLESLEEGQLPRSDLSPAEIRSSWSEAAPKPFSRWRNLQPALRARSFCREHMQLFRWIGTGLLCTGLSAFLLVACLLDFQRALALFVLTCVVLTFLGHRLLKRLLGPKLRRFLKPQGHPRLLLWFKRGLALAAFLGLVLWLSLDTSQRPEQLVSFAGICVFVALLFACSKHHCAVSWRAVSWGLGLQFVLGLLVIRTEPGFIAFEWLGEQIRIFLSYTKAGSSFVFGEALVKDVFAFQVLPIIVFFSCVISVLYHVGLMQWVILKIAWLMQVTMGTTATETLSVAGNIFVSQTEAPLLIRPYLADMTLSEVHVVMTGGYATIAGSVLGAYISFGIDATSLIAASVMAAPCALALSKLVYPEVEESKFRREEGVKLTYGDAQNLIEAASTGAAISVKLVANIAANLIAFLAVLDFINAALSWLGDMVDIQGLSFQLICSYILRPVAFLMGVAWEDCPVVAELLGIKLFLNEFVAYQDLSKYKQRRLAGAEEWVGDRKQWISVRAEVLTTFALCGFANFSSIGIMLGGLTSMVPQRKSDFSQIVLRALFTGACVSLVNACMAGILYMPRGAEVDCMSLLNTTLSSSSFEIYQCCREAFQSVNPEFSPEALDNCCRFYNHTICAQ
From the text: as §3, §2
The oocyte-recording chamber was gravity-perfused with ND96 buffer at a rate of 2 ml/min. Membrane currents were measured using an Oocyte Clamp (OC-725C; Warner Instruments, Hamden, CT). Individual oocytes were penetrated with two microelectrodes filled with 3 M KCl (0.5–1.0 MΩ). All electrophysiological experiments were conducted at room temperature. The OC-725C Oocyte Clamp was computer-interfaced via an Axon Digidata 1550 and controlled by Axoscope software (Molecular Devices, Sunnyvale, CA). The current signals were filtered at 20 Hz and sampled at intervals of 20 ms.

Chain of hCNT2 (O43868 whole entry): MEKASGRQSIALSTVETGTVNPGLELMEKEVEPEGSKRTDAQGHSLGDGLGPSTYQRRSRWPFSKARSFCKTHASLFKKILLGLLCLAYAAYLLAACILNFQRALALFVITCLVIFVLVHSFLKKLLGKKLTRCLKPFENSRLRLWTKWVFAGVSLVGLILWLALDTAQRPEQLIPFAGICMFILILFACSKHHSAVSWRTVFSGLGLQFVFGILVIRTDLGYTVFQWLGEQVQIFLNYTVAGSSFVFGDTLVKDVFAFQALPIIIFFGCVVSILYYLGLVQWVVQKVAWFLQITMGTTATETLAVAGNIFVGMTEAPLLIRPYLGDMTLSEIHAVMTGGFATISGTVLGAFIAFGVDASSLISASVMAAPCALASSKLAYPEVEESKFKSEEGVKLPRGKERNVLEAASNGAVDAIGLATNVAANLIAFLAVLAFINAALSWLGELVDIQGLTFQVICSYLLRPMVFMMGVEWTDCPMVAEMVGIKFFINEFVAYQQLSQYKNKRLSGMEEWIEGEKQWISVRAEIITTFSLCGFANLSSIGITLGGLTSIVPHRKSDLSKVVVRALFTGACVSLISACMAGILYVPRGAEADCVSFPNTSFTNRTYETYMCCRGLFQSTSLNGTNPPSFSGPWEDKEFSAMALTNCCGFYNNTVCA

Question: `Cc1cc2cn([C@@H]3O[C@H](CO)[C@@H](O)C3(F)F)c(=O)nc2[nH]1` [pyrrolo-gemcitabine] was tested. Which “transport by hCNT2” value [1] did it give?
Answer: The value was “transported neither compound”.

Question: And the “Total charge transported, Mean” value ([2]; 400 μM nucleoside, hCNT3 (375L/446V)-expressing Xenopus oocytes)?
Answer: Its value is 4.864 μC.

Question: And the “Qgem/Qpyr-gem, Mean” value ([2]; ratio of total charge, 400 μM each, hCNT3 (375L/446V))?
Answer: Its value is 1.287.

Question: And the “Total charge transported, Mean” value ([3]; 200 μM nucleoside, hCNT1-expressing Xenopus oocytes, mean of Exp. 1-11)?
Answer: The value was 0.823 μC.

Question: And the “total charge uptake higher than gemcitabine” value ([3]; fold, hCNT1 oocytes, 200 μM)?
Answer: The value was “sevenfold”.

Question: What about the “Qpyr-gem/Qgem, Mean” value ([3]; ratio of total charge, 200 μM each, hCNT1, mean of Exp. 1-11) of the same compound?
Answer: Its value is 6.829.

Question: What about the mAnisotropy ([4]; [vcCNT] 0 μM) of the same compound?
Answer: Its mAnisotropy is 44.1 and 33.7 and 35.1.

Question: And the mAnisotropy ([4]; [vcCNT] 1.0 μM)?
Answer: Its mAnisotropy is 45.4 and 36.3 and 43.5.

Question: What about the mAnisotropy ([4]; [vcCNT] 2.5 μM) of the same compound?
Answer: The mAnisotropy was 55.8 and 48.4 and 48.8.

Question: And the mAnisotropy ([4]; [vcCNT] 5.0 μM)?
Answer: Its mAnisotropy is 72.7 and 68.7 and 59.5.

Question: What about the mAnisotropy ([4]; [vcCNT] 10 μM) of the same compound?
Answer: Its mAnisotropy is 92.3 and 80.0 and 79.5.

Question: And the mAnisotropy ([4]; [vcCNT] 25 μM)?
Answer: Its mAnisotropy is 127.1 and 118.0 and 110.9.

Question: And the mAnisotropy ([4]; [vcCNT] 50 μM)?
Answer: Its mAnisotropy is 153.7 and 139.6 and 136.3.

Question: What about the mAnisotropy ([4]; [vcCNT] 100 μM) of the same compound?
Answer: The mAnisotropy was 173.8 and 165.0.

Question: And the mAnisotropy ([4]; [vcCNT] 200 μM)?
Answer: Its mAnisotropy is 187.8 and 174.6.

Question: And the Kd ([4]; direct titration of fluorescent nucleoside with vcCNT, single-site model, mean ± SEM, read-out: KD)?
Answer: Its Kd is 24 µM and 23.5 µM.

Question: What about the “decrease of KD relative to gemcitabine” value ([4]; vcCNT) of the same compound?
Answer: Its value is roughly 60 fold.

Question: What about the “Total charge transported, Mean” value ([5]; 400 μM nucleoside, hCNT1 (353V/424L)-expressing Xenopus oocytes) of the same compound?
Answer: The value was 0.255 μC.

Question: And the “Qpyr-gem/Qgem, Mean” value ([5]; ratio of total charge, 400 μM each, hCNT1 (353V/424L))?
Answer: The value was 0.385.
